Experimental data from ChEMBL document CHEMBL1909046, “DrugMatrix in vitro pharmacology data”.

Legend:
Thromboxane-A synthase = molecular target: T1, Thromboxane-A synthase (Homo sapiens, UniProt P24557); test: biochemical; format: tissue-based, Platelet; settings: platelet;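 further: enzyme inhibition assay with PGH2 supplied as substrate; in other assays of this panel Not Active means under 50% inhibition at 10 µM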
T1 sequence (P24557 whole entry): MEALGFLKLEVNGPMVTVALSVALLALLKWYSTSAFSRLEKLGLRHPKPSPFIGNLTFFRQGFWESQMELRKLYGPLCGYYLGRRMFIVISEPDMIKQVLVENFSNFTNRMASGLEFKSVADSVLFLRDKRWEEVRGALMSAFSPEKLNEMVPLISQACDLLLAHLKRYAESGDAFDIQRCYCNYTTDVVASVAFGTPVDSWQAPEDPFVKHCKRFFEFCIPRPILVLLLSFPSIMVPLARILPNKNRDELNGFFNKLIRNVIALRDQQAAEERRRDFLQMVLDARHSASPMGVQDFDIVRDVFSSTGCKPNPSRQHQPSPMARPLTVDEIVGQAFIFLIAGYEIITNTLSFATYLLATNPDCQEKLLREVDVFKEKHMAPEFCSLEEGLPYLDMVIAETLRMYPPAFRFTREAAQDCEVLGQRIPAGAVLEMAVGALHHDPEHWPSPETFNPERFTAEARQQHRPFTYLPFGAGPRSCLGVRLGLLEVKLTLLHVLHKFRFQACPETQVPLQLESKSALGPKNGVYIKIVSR

Vasopressin V1a receptor = Vasopressin V1a receptor (Homo sapiens, UniProt P37288); format: cell membranes, Membrane; settings: hek293; further: in other assays of this panel Not Active means under 50% inhibition at 10 µM
Carbonic anhydrase 2 = Carbonic anhydrase 2 (Homo sapiens, UniProt P00918); test: DRUGMATRIX: Carbonic Anhydrase II enzyme inhibition (substrate: 4-Nitrophenyl acetate (4-NPA)); format: tissue-based, Erythrocyte; settings: erythrocyte; Not Active = under 50% inhibition at 10 µM
[1] = molecular target: T2, Neuropeptide Y receptor type 2 (Homo sapiens, UniProt P49146); format: cell membranes, Membrane; settings: kan-ts; further: in other assays of this panel Not Active means under 50% inhibition at 10 µM
T2 sequence (P49146 whole entry): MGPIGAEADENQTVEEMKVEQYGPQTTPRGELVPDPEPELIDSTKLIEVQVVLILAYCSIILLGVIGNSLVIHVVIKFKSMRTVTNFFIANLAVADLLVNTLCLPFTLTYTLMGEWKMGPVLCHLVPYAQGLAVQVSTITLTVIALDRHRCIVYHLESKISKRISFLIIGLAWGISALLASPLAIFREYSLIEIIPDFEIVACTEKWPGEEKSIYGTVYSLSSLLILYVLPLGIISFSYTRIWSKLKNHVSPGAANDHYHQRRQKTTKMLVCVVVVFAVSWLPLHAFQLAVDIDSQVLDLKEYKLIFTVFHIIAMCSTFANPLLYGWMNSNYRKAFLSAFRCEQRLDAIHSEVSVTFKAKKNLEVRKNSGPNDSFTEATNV

Acetylcholinesterase = Acetylcholinesterase (Homo sapiens, UniProt P22303); test: DRUGMATRIX: Acetylcholinesterase enzyme inhibition (substrate: acetylthiocholine); format: cell-based, HEK293; settings: hek293; Not Active = under 50% inhibition at 10 µM
Cytochrome P450 1A2 = molecular target: T3, Cytochrome P450 1A2 (Homo sapiens, UniProt P05177); settings: bti-tn-5b1-4; further: in other assays of this panel Not Active means under 50% inhibition at 10 µM
T3 sequence (P05177 whole entry): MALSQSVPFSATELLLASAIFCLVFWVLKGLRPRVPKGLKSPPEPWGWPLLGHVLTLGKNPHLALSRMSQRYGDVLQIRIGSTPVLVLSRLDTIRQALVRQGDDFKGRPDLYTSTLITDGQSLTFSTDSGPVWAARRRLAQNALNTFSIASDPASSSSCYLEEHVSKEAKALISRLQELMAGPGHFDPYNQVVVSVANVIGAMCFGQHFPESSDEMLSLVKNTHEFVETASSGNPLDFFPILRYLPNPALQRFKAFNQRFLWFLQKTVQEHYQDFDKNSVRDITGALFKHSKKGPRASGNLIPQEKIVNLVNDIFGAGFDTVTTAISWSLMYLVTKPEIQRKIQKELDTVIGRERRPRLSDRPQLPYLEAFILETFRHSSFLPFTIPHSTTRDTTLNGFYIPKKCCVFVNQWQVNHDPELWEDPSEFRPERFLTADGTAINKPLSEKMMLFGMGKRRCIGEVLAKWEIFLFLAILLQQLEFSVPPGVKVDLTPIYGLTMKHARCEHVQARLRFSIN

Cytochrome P450 2A6 = molecular target: T4, Cytochrome P450 2A6 (Homo sapiens, UniProt P11509); settings: bti-tn-5b1-4; further: in other assays of this panel Not Active means under 50% inhibition at 10 µM
T4 sequence (P11509 whole entry): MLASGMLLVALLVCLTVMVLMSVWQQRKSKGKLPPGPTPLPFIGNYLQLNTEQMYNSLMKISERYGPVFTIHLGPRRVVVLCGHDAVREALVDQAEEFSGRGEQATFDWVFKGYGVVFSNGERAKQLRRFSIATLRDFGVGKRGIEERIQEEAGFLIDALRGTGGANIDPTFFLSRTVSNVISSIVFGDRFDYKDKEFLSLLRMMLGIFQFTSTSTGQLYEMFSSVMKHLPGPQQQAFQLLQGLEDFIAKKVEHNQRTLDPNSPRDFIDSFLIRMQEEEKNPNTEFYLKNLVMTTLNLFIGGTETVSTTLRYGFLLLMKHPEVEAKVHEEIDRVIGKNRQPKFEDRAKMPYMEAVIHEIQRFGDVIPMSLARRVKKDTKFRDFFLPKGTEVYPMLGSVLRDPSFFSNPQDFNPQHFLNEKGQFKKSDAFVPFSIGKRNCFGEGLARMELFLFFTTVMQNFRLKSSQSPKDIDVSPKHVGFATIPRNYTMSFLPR

Cytochrome P450 2C19 = Cytochrome P450 2C19 (Homo sapiens, UniProt P33261); settings: bti-tn-5b1-4; further: in other assays of this panel Not Active means under 50% inhibition at 10 µM
Cytochrome P450 3A4 = Cytochrome P450 3A4 (Homo sapiens, UniProt P08684); settings: bti-tn-5b1-4; further: in other assays of this panel Not Active means under 50% inhibition at 10 µM
[2] = molecular target: Voltage-gated inwardly rectifying potassium channel KCNH2 (Homo sapiens, UniProt Q12809); settings: hek293; further: in other assays of this panel Not Active means under 50% inhibition at 10 µM
Voltage-gated inwardly rectifying potassium channel KCNH2, sequence (Q12809 whole entry): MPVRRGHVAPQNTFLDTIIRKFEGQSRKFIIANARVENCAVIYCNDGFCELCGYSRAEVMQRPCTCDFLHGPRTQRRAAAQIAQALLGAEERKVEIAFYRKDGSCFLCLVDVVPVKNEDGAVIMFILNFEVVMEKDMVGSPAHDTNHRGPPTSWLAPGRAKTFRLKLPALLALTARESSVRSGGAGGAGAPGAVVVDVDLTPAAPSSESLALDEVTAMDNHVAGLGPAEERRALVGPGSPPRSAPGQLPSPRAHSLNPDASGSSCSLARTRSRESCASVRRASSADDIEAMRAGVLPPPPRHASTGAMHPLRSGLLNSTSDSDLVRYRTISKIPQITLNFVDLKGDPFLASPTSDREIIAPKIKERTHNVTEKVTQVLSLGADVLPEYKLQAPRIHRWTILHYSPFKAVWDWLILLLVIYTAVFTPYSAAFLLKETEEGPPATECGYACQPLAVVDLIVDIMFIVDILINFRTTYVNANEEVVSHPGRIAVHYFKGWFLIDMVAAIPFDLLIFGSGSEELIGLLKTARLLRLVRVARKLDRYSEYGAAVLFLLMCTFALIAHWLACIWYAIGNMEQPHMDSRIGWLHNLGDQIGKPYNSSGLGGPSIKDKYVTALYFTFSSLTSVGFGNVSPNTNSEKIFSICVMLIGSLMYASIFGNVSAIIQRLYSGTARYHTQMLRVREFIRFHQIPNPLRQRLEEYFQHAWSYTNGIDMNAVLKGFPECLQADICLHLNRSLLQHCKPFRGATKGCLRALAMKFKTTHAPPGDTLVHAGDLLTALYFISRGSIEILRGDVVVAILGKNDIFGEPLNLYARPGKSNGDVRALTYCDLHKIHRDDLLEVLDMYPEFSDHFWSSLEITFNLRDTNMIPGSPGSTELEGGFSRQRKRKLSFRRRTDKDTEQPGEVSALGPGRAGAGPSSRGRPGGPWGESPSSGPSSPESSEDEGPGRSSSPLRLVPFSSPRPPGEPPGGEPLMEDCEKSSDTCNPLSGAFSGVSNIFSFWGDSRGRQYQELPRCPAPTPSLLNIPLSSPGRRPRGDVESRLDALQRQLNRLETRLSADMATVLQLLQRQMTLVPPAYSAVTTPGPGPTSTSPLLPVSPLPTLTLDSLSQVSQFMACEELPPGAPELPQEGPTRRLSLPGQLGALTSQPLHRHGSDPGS

Cytochrome P450 3A4, sequence (P08684 whole entry): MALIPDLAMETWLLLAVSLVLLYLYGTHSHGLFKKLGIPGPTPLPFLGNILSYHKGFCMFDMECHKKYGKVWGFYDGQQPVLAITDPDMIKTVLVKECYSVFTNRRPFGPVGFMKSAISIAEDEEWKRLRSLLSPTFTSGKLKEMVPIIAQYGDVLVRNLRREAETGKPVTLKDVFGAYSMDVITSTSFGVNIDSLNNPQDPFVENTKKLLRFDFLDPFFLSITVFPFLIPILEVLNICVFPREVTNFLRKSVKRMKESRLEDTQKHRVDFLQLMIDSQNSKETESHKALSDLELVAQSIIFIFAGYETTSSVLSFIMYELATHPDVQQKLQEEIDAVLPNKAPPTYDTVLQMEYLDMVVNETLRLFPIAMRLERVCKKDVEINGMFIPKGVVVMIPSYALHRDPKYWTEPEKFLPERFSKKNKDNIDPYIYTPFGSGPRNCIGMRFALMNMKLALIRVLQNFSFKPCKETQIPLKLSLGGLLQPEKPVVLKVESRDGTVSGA
Vasopressin V1a receptor, sequence (P37288 whole entry): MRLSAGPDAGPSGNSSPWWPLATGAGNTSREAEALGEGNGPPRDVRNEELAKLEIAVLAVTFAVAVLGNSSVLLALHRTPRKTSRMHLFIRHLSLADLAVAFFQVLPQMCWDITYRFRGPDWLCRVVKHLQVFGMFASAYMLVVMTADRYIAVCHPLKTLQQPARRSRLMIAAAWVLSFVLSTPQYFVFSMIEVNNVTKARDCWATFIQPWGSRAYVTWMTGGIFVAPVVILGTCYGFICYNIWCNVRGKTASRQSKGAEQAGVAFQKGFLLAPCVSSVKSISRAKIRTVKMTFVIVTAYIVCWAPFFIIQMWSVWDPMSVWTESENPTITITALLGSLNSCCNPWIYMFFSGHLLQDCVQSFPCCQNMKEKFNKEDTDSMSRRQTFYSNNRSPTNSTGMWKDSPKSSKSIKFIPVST
Cytochrome P450 2C19, sequence (P33261 whole entry): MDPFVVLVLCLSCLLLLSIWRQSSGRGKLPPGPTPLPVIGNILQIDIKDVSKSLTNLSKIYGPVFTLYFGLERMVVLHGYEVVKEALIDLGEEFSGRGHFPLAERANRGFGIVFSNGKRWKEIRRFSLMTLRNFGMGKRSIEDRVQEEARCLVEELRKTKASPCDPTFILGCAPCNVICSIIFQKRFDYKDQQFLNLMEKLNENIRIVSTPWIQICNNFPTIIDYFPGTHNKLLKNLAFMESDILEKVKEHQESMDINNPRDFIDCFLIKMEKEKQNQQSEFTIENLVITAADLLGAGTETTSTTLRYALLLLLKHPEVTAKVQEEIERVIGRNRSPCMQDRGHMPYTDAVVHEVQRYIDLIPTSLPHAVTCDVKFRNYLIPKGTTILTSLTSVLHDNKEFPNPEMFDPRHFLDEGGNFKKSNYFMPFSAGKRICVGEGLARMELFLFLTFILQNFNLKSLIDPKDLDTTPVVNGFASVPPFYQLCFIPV
Acetylcholinesterase, sequence (P22303 whole entry): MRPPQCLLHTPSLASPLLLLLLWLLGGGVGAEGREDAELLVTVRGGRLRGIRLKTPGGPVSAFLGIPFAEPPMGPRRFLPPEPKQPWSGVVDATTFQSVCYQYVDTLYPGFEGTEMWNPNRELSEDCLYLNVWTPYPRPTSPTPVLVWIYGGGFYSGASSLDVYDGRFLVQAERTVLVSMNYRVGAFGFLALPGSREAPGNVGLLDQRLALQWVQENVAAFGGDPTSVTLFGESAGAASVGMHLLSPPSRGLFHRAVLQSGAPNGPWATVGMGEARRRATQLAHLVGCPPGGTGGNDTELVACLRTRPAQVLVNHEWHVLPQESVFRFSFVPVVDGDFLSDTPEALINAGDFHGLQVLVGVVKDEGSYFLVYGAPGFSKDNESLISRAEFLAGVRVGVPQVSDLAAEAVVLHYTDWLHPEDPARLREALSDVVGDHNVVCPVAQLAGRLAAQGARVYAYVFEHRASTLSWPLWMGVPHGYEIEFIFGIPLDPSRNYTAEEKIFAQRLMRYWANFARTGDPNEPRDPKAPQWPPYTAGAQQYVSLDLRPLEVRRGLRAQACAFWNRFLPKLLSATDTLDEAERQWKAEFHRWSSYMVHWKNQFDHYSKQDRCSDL

CARBOPLATIN
Not Active: IC50 (Thromboxane-A synthase) | Ki (Thromboxane-A synthase) | IC50 (Vasopressin V1a receptor) | Ki (Vasopressin V1a receptor) | IC50 (Carbonic anhydrase 2) | Ki (Carbonic anhydrase 2) | IC50 [1] | Ki [1] | IC50 (Acetylcholinesterase) | Ki (Acetylcholinesterase) | IC50 (Cytochrome P450 1A2) | Ki (Cytochrome P450 1A2) | IC50 (Cytochrome P450 2A6) | Ki (Cytochrome P450 2A6) | IC50 (Cytochrome P450 2C19) | Ki (Cytochrome P450 2C19) | IC50 (Cytochrome P450 3A4) | Ki (Cytochrome P450 3A4) | IC50 [2] | Ki [2]

CC(/C=C1\SC(=S)N(CC(=O)O)C1=O)=C\c1ccccc1
Not Active: IC50 (Thromboxane-A synthase) | IC50 (Vasopressin V1a receptor) | IC50 (Carbonic anhydrase 2) | IC50 [1] | IC50 (Acetylcholinesterase) | IC50 (Cytochrome P450 1A2) | Ki (Cytochrome P450 1A2) | IC50 (Cytochrome P450 2A6) | Ki (Cytochrome P450 2A6) | IC50 (Cytochrome P450 2C19) | Ki (Cytochrome P450 2C19) | IC50 (Cytochrome P450 3A4) | Ki (Cytochrome P450 3A4) | IC50 [2] | Ki [2]

N=C(N)NCCCCNC(=N)N.O=S(=O)(O)O [ARCAINE SULFATE]
Not Active: IC50 (Thromboxane-A synthase) | IC50 (Vasopressin V1a receptor) | IC50 (Carbonic anhydrase 2) | IC50 [1] | IC50 (Acetylcholinesterase) | IC50 (Cytochrome P450 1A2) | Ki (Cytochrome P450 1A2) | IC50 (Cytochrome P450 2A6) | Ki (Cytochrome P450 2A6) | IC50 (Cytochrome P450 2C19) | Ki (Cytochrome P450 2C19) | IC50 (Cytochrome P450 3A4) | Ki (Cytochrome P450 3A4) | IC50 [2] | Ki [2]

CC1(C)[C@@H](O[C@H]2O[C@H](C(=O)O)[C@@H](O)[C@H](O)[C@H]2O[C@@H]2O[C@H](C(=O)O)[C@@H](O)[C@H](O)[C@H]2O)CC[C@]2(C)[C@H]3C(=O)C=C4[C@@H]5C[C@@](C)(C(=O)O)CC[C@]5(C)CC[C@@]4(C)[C@]3(C)CC[C@@H]12 [GLYCYRRHIZIN]
Not Active: IC50 (Thromboxane-A synthase) | IC50 (Vasopressin V1a receptor) | IC50 (Carbonic anhydrase 2) | IC50 [1] | IC50 (Acetylcholinesterase) | IC50 (Cytochrome P450 1A2) | Ki (Cytochrome P450 1A2) | IC50 (Cytochrome P450 2A6) | Ki (Cytochrome P450 2A6) | IC50 (Cytochrome P450 2C19) | Ki (Cytochrome P450 2C19) | IC50 (Cytochrome P450 3A4) | Ki (Cytochrome P450 3A4) | IC50 [2] | Ki [2]

NCC[C@H](O)C(=O)N[C@@H]1C[C@H](N)[C@@H](O[C@H]2O[C@H](CN)[C@@H](O)[C@H](O)[C@H]2O)[C@H](O)[C@H]1O[C@H]1O[C@H](CO)[C@@H](O)[C@H](N)[C@H]1O [AMIKACIN]
Not Active: IC50 (Thromboxane-A synthase) | IC50 (Vasopressin V1a receptor) | IC50 (Carbonic anhydrase 2) | IC50 [1] | IC50 (Acetylcholinesterase) | IC50 (Cytochrome P450 1A2) | Ki (Cytochrome P450 1A2) | IC50 (Cytochrome P450 2A6) | Ki (Cytochrome P450 2A6) | IC50 (Cytochrome P450 2C19) | Ki (Cytochrome P450 2C19) | IC50 (Cytochrome P450 3A4) | Ki (Cytochrome P450 3A4) | IC50 [2] | Ki [2]

CN(C)[C@@H]1C(O)=C(C(N)=O)C(=O)[C@@]2(O)C(O)=C3C(=O)c4c(O)cccc4[C@@](C)(O)[C@H]3[C@H](O)[C@@H]12 [OXYTETRACYCLINE]
Not Active: IC50 (Thromboxane-A synthase) | IC50 (Vasopressin V1a receptor) | IC50 (Carbonic anhydrase 2) | IC50 [1] | IC50 (Acetylcholinesterase) | IC50 (Cytochrome P450 1A2) | Ki (Cytochrome P450 1A2) | IC50 (Cytochrome P450 2A6) | Ki (Cytochrome P450 2A6) | IC50 (Cytochrome P450 2C19) | Ki (Cytochrome P450 2C19) | IC50 (Cytochrome P450 3A4) | Ki (Cytochrome P450 3A4) | IC50 [2] | Ki [2]

COc1c(N2CCNC(C)C2)c(F)cc2c(=O)c(C(=O)O)cn(C3CC3)c12 (stereo not given) [GATIFLOXACIN]
Not Active: IC50 (Thromboxane-A synthase) | IC50 (Vasopressin V1a receptor) | IC50 (Carbonic anhydrase 2) | IC50 [1] | IC50 (Acetylcholinesterase) | IC50 (Cytochrome P450 1A2) | Ki (Cytochrome P450 1A2) | IC50 (Cytochrome P450 2A6) | Ki (Cytochrome P450 2A6) | IC50 (Cytochrome P450 2C19) | Ki (Cytochrome P450 2C19) | IC50 (Cytochrome P450 3A4) | Ki (Cytochrome P450 3A4) | IC50 [2] | Ki [2]
